Tests used:
Test in all cases: Test G Pre-Emergence Protocol
Type in all cases: in vivo
[1] = tested on: velvetleaf (Abutilon theophrasti); details: Abutilon theophrasti, pre-emergence, 312 h, evaluated after 13 days; for pest or weed control at 15.625 g/ha: 15.625 g ai/ha; for pest or weed control at 15.625 g/ha / pest or weed control at 250 g/ha: read-out: Velvetleaf damage rating (100=total damage to plant; 0=no damage to plant); for pest or weed control at 62.5 g/ha: 62.5 g ai/ha, 100=total damage to plant, 0=no damage to plant, read-out: plant damage rating, Velvetleaf; for pest or weed control at 250 g/ha: 250 g ai/ha
Method: (§1) Seeds of corn (Zea mays), giant foxtail (Setaria faberi), barnyardgrass (Echinochloa crus-galli), ivy-leaved morning glory (Ipomoea hederacea), redroot pigweed (Amaranthus retroflexus) and velvetleaf (Abutilon theophrasti) were sown in standard soil in pots. After cultivation for one day under controlled conditions in a glasshouse (at 24/16° C., day/night; 14 hours light; 65% humidity), the plants were sprayed with an aqueous spray solution derived from the formulation of the technical active ingredient in acetone/water (50:50) solution containing 0.5% Tween 20 (polyoxyethylene sorbitan monolaurate, CAS RN 9005-64-5) to give a final dose of 15.625, 62.5 or 250 g/ha of test compound.
(§2) The test plants were then grown on under controlled conditions in a glasshouse (at 24/16° C., day/night; 14 hours light; 65% humidity) and watered twice daily. After 13 days the test was evaluated (100=total damage to plant; 0=no damage to plant). A dash (-) means no test result.

[2] = tested on: giant foxtail (Setaria faberi); details: Setaria faberi, pre-emergence, 312 h, evaluated after 13 days; for pest or weed control at 15.625 g/ha: 15.625 g ai/ha; for pest or weed control at 15.625 g/ha / pest or weed control at 250 g/ha: read-out: Foxtail, Giant damage rating (100=total damage to plant; 0=no damage to plant); for pest or weed control at 62.5 g/ha: 62.5 g ai/ha, 100=total damage to plant, 0=no damage to plant, read-out: plant damage rating, Foxtail, Giant; for pest or weed control at 250 g/ha: 250 g ai/ha
Method: as §1, §2

[3] = tested on: redroot pigweed (Amaranthus retroflexus); details: Amaranthus retroflexus, pre-emergence, 312 h, evaluated after 13 days; for pest or weed control at 15.625 g/ha: 15.625 g ai/ha; for pest or weed control at 15.625 g/ha / pest or weed control at 250 g/ha: read-out: Pigweed, Redroot damage rating (100=total damage to plant; 0=no damage to plant); for pest or weed control at 62.5 g/ha: 62.5 g ai/ha, 100=total damage to plant, 0=no damage to plant, read-out: plant damage rating, Pigweed, Redroot; for pest or weed control at 250 g/ha: 250 g ai/ha
Method: as §1, §2

[4] = tested on: ivy-leaved morning glory (Ipomoea hederacea); details: Ipomoea, pre-emergence, 312 h, evaluated after 13 days; for pest or weed control at 15.625 g/ha: 15.625 g ai/ha, read-out: Morning-glory, Ivy-leaved damage rating (100=total damage to plant; 0=no damage to plant); for pest or weed control at 62.5 g/ha: 62.5 g ai/ha, 100=total damage to plant, 0=no damage to plant, read-out: plant damage rating, Morningglory, Ivy-leaved; for pest or weed control at 250 g/ha: 250 g ai/ha, read-out: Morningglory, Ivy-leaved damage rating (100=total damage to plant; 0=no damage to plant)
Method: as §1, §2

[5] = tested on: barnyardgrass (Echinochloa crus-galli); details: Echinochloa crus-galli, pre-emergence, 312 h, evaluated after 13 days; for pest or weed control at 15.625 g/ha: 15.625 g ai/ha, read-out: Barnyard grass damage rating (100=total damage to plant; 0=no damage to plant); for pest or weed control at 62.5 g/ha: 62.5 g ai/ha, 100=total damage to plant, 0=no damage to plant, read-out: plant damage rating, Barnyardgrass; for pest or weed control at 250 g/ha: 250 g ai/ha, read-out: Barnyardgrass damage rating (100=total damage to plant; 0=no damage to plant)
Method: as §1, §2

[6] = tested on: corn (Zea mays); details: Zea mays, pre-emergence, 312 h, evaluated after 13 days; for plant injury at 15.625 g/ha: 15.625 g ai/ha; for plant injury at 15.625 g/ha / plant injury at 250 g/ha: read-out: Corn damage rating (100=total damage to plant; 0=no damage to plant); for plant injury at 62.5 g/ha: 62.5 g ai/ha, 100=total damage to plant, 0=no damage to plant, read-out: plant damage rating, Corn; for plant injury at 250 g/ha: 250 g ai/ha
Method: as §1, §2

SMILES | pest or weed control at 15.625 g/ha [1] | pest or weed control at 62.5 g/ha [1] | pest or weed control at 250 g/ha [1] | pest or weed control at 15.625 g/ha [2] | pest or weed control at 62.5 g/ha [2] | pest or weed control at 250 g/ha [2] | pest or weed control at 15.625 g/ha [3] | pest or weed control at 62.5 g/ha [3] | pest or weed control at 250 g/ha [3] | pest or weed control at 15.625 g/ha [4] | pest or weed control at 62.5 g/ha [4] | pest or weed control at 250 g/ha [4] | pest or weed control at 15.625 g/ha [5] | pest or weed control at 62.5 g/ha [5] | pest or weed control at 250 g/ha [5] | plant injury at 15.625 g/ha [6] | plant injury at 62.5 g/ha [6] | plant injury at 250 g/ha [6]
CN1C[C@H](c2ccc(C(F)(F)F)cc2)[C@@H](C(=O)Nc2cccnc2F)C1=O [Compound 1396] | 40% | 70% | 80% | 90% | 90% | 100% | 80% | 80% | 80% | 0% | 70% | 70% | 80% | 90% | 90% | 70% | 80% | 80%
CN1C[C@H](c2ccc(Cl)cc2)[C@@H](C(=O)Nc2cccc(F)n2)C1=O [Compound 1399] | 0% | 40% | 70% | 90% | 90% | 90% | 0% | 30% | 80% | 0% | 50% | 60% | 0% | 90% | 90% | 0% | 10% | 60%

— patent US12077503B2, “Substituted cyclic amides and their use as herbicides” (FMC CORPORATION, priority 2015, dated 2024)
